SMILES strings stand for the structures. Several values for one entry are separate records, joined by “and”; a condition that tells them apart may be missing. Equal entries are not always repeated.

Common to all, as to assay type: functional, Mus musculus
Assay [1] concerns B16. The assay can be described thus: Compound was evaluated for percent tumor volume against B16 melanoma in mice (T) at 1.6 mg/kg intravenous administration after 11 days ot that of control (C).
For assay [2], the system named is B16. As to the kind of experiment: Compound was evaluated for percent tumor volume against B16 melanoma in mice (T) at 1.6 mg/kg intravenous administration after 13 days ot that of control (C).
The test system of assay [3] is B16. As to the kind of experiment: Compound was evaluated for percent tumor volume against B16 melanoma in mice (T) at 1.6 mg/kg intravenous administration after 8 days ot that of control (C).
The test system of assay [4] is B16. The assay can be described thus: Compound was evaluated for percent tumor volume against B16 melanoma in mice (T) at 3.13 mg/kg intravenous administration after 11 days ot that of control (C).
Assay [5] concerns B16. As to the kind of experiment: Compound was evaluated for percent tumor volume against B16 melanoma in mice (T) at 3.13 mg/kg intravenous administration after 13 days ot that of control (C).
Assay [6] concerns B16. The assay can be described thus: Compound was evaluated for percent tumor volume against B16 melanoma in mice (T) at 3.13 mg/kg intravenous administration after 8 days ot that of control (C).
Assay [7] deals with Colon 26. As to the kind of experiment: Compound was evaluated for percent tumor volume against colon 26 cells in mice (T) at a dose of 1.6 mg/kg intravenous administration after 10 days ot that of control (C).
Assay [8] concerns Colon 26. The assay can be described thus: Compound was evaluated for percent tumor volume against colon 26 cells in mice (T) at a dose of 1.6 mg/kg intravenous administration after 12 days ot that of control (C).
The subject of assay [9] is Colon 26. As to the kind of experiment: Compound was evaluated for percent tumor volume against colon 26 cells in mice (T) at a dose of 1.6 mg/kg intravenous administration after 8 days ot that of control (C).
Assay [10] deals with Colon 26. As to the kind of experiment: Compound was evaluated for percent tumor volume against colon 26 cells in mice (T) at a dose of 6.25 mg/kg intravenous administration after 12 days ot that of control (C).
Assay [11] has as its system Colon 26. The assay can be described thus: Compound was evaluated for percent tumor volume against colon 26 cells in mice (T) at a dose of 6.25 mg/kg intravenous administration after 8 days ot that of control (C).
In assay [12] the test system is Colon 26. As to the kind of experiment: Compound was evaluated for percent tumor volume against colon 26 cells in mice (T) at a dose of 3.13 mg/kg intravenous administration after 10 days ot that of control (C).
In assay [13] the test system is Colon 26. As to the kind of experiment: Compound was evaluated for percent tumor volume against colon 26 cells in mice (T) at a dose of 3.13 mg/kg intravenous administration after 12 days ot that of control (C).
Assay [14] relates to Colon 26. As to the kind of experiment: Compound was evaluated for percent tumor volume against colon 26 cells in mice (T) at a dose of 3.13 mg/kg intravenous administration after 8 days ot that of control (C).
Assay [15] deals with Colon 26. As to the kind of experiment: Compound was evaluated for percent tumor volume against colon 26 cells in mice (T) at a dose of 6.25 mg/kg intravenous administration after 10 days ot that of control (C).
Assay [16] has as its system P388. As to the kind of experiment: Percentage of the median survival time of P388 leukemic mice (T) at intraperitoneal administration of 0.4 mg/kg dose to that of controls (C).
For assay [17], the system named is P388. The assay can be described thus: Percentage of the median survival time of P388 leukemic mice (T) at intraperitoneal administration of 0.8 mg/kg dose to that of controls (C).
In assay [18] the test system is P388. As to the kind of experiment: Percentage of the median survival time of P388 leukemic mice (T) at intraperitoneal administration of 1.6 mg/kg dose to that of controls (C).
Assay [19] concerns P388. As to the kind of experiment: Percentage of the median survival time of P388 leukemic mice (T) at intraperitoneal administration of 3.13 mg/kg dose to that of controls (C).
Assay [20] deals with B16. The assay can be described thus: Compound was evaluated for percent tumor volume against B16 melanoma in mice (T) at 6.25 mg/kg intravenous administration after 11 days ot that of control (C).
The test system of assay [21] is B16. As to the kind of experiment: Compound was evaluated for percent tumor volume against B16 melanoma in mice (T) at 6.25 mg/kg intravenous administration after 8 days ot that of control (C).
Assay [22] concerns Colon 26. The assay can be described thus: Compound was evaluated for percent tumor volume against colon 26 cells in mice (T) at a dose of 6.25 mg/kg intravenous administration after 12 days ot that of control (C), (Number of mice surviving / number of mice tested); T/C, 7/8.
The subject of assay [23] is Colon 26. The assay can be described thus: Compound was evaluated for percent tumor volume against colon 26 cells in mice (T) at a dose of 3.13 mg/kg intravenous administration after 10 days ot that of control (C), (Number of mice surviving / number of mice tested; T/C), 7/8.
Assay [24] deals with Colon 26. The assay can be described thus: Compound was evaluated for percent tumor volume against colon 26 cells in mice (T) at a dose of 3.13 mg/kg intravenous administration after 12 days ot that of control (C), (Number of mice surviving / number of mice tested); T/C, 6/8.
The subject of assay [25] is P388. As to the kind of experiment: Percentage of the median survival time of P388 leukemic mice (T) at intraperitoneal administration of 6.25 mg/kg dose to that of controls (C).

Take `COc1ccc(C[C@H]2C(=O)N[C@@H](C)C(=O)N(C)[C@H]3Cc4cccc(c4)Oc4cc(ccc4OC)C[C@@H](C(=O)N[C@H](C)C(=O)N[C@@H](C)C(=O)N2C)N(C)C3=O)cc1`: the T/C is recorded as 62.4% in the assay on B16 [1]; 85.1% in the assay on B16 [2]; 65.8% in the assay with B16 [3]; 55.5% in the assay on B16 [4]; 49.9% in the assay with B16 [5]; 60% in the assay with B16 [6]. Moreover, the T/C in the assay with Colon 26 [7] is listed as 72.8%; in the assay on Colon 26 [8], 88%; in the assay on Colon 26 [9] it was 55.8%; in the assay on Colon 26 [10], 78%; with Colon 26 [11] it was 49%; with Colon 26 [12] it was 60.9%. For the same compound, the T/C in the assay with Colon 26 [13] turned out to be 85.6%; in the assay on Colon 26 [14] it was 48%; in the assay on Colon 26 [15], 50.3%; in the assay with P388 [16], 144%; with P388 [17], 144%; in the assay with P388 [18], 152%. The compound further displayed a T/C in the assay with P388 [19] of 163%.
Consider `COc1ccc(C[C@H]2C(=O)N[C@@H](C)C(=O)N(C)[C@H]3Cc4cccc(c4)Oc4cc(ccc4OCCN(C)C)C[C@@H](C(=O)N[C@H](C)C(=O)N[C@@H](C)C(=O)N2C)N(C)C3=O)cc1`, for which the T/C with B16 [4] is 67.9%; with B16 [5], 140.5%; in the assay on B16 [6], 77.2%; with B16 [20], 40.8%; in the assay on B16 [21] it was 57% and 40.8%; in the assay with Colon 26 [7] it was 76.7%. The T/C with Colon 26 [8] came to 102.5%; in the assay with Colon 26 [9], 84.1%; in the assay on Colon 26 [22], 125.5%; with Colon 26 [11], 48.1%; in the assay with Colon 26 [23] it was 55.8%; in the assay on Colon 26 [24], 101.5%. The T/C in the assay on Colon 26 [14] was 54.4%; in the assay with Colon 26 [15], 70%; with P388 [16], 127%; in the assay with P388 [18] it was 145%; with P388 [25] it was 153%.

Broadly, the T/C is the ratio of treated to control.
